Results from publication PMC5610748, “Evaluation of Novel α-(Acyloxy)-α-(Quinolin-4-yl) Acetamides as Antiplasmodial Agents” (Iranian Journal of Pharmaceutical Research : IJPR, 2017).
Read-outs that look alike come from different tables or passages of the source.

What was measured:
[1] = test system: P. falciparum 3D7 chloroquine-sensitive strain; experiment: In-vitro antiplasmodial test (Giemsa-stained smears); assay type: cell-based, Plasmodium falciparum; details: read-out: P. falciparum IC50
Experimental: The P. falciparum 3D7 chloroquine-sensitive strain used throughout the study. In-vitro culture of P. falciparum was carried out according to the method described by previously ([12]-[14]). Briefly, parasites were cultured on human erythrocytes (blood group O^+), provided by the Blood Transfusion Organization (Zanjan, Iran), in RPMI 1640 medium completed with 5% of human AB^+ serum, 0.3 g/100 mL Albumax I, 25 mM HEPES, 19 mM sodium carbonate and 30 µg/mL gentamicin sulfate at pH 7.2. Type O^+ erythrocytes were washed three times with RPMI 1640 and stored at 4 °C.
Parasites were aerated in 25 mL flasks under 3% oxygen, 6% carbon dioxide and 91% nitrogen atmosphere. The medium was changed each day.
Pure compounds were dissolved in DMSO at concentration of 10 mg/mL and diluted with complete malaria culture medium to reach 1 mg/mL before use. Parasites were synchronized to the ring stage by sorbitol method described previously ([15]). From 2-fold dilution series (50-0.39 µg/mL) of compounds prepared in assay medium, 20 µL added to each well of 96-well microtiter plates in triplicate. One hundred eighty µL of synchronous P. falciparum culture (1% parasitemia, 2% hematocrit) added to each well reaching a final volume of 200 µL per well. […] Plates were incubated at 37 °C for 24 h. […] After 24 h incubation, Giemsa stained thin smears were made and parasitemia was confirmed by the numeration of 1000 erythrocytes per slide. Data acquired by counting the erythrocytes in Giemsa stain were imported in Microsoft Excel spreadsheet and IC50 values were calculated from dose-response curves.

[2] = test system: human hepatocellular carcinoma cell line (HepG2); experiment: In-vitro cytotoxicity assay (MTT); assay type: cell-based; details: HepG2 cells, 24 h incubation
Experimental: In drug discovery approaches against malaria, one of the important strategies is the safety of active compounds against human. So, the toxicity of active compounds against P. falciparum was assessed on human hepatocellular carcinoma cell line (HepG2) by using MTT (3-[4,5-dimethylthiazol-2-yl] -2,5 diphenyl tetrazolium bromide) assay ([16]-[17]). The cells were cultured in RPMI 1640 medium enriched with 10% FBS (Fetal Bovine Serum) and incubated at 37 °C with 5% CO2 and 96% humidity. After several subcultures, cells were distributed in 96-well plates at 4,000 cells in 100 µL of culture medium and incubated for 24 h at the same condition to allow attachment of cells to the bottom of wells. Then culture medium removed and 100 µL of two-fold serially diluted concentrations of drug (400-1.56 µg/mL) added to each well in triplicate. Microtiter plates further incubated for 24 h in the same condition. Culture medium without drug was used as negative control. After the incubation time, the drug containing medium discharged and for evaluation of cell survival, 25 µL of MTT solution (4 mg/mL in PBS) added to each well and plates incubated for 3 h (in same condition). Then 100 µL of DMSO added to each well and plates were gently shaken to dissolve the formed formazan crystals. The absorbance of each well measured at 540 nm using an ELISA plate reader (Infinite M200, Tecan). The GI% (Growth Inhibition percent) was calculated using the formula Growth Inhibition% = 100 – […], where ODtest is the mean absorbance of treated cells and ODcontrol is the mean absorbance of a negative control. The cell survival of control assumed 100% and IC50 values generated from dose-response curves for each cell line.

[3] = Plasmodium falciparum, 3D7 chloroquine-sensitive strain, ring-stage synchronized, 24 h incubation, parasitemia by Giemsa smears
[4] = 3D7 chloroquine-sensitive strain, ring-stage synchronized, 24 h incubation, parasitemia by Giemsa smears

IC50 [1, 4] [µM] | SMILES | also measured
5.85 | CC(C)(C)NC(=O)C(OC(=O)c1ccc(Cl)cc1)c1ccnc2ccccc12 (stereo not drawn) [Compound 13] | –
5.1 | CC(C)(C)NC(=O)C(OC(=O)c1ccc(Br)cc1)c1ccnc2ccccc12 (stereo not drawn) [Compound 16] | –
3.08 | CC(C)(C)NC(=O)C(OC(=O)c1ccc(C#N)cc1)c1ccnc2ccccc12 (stereo not drawn) [Compound 17] | –
6.95 | CC(C)(C)NC(=O)C(OC(=O)c1cccc2ccccc12)c1ccnc2ccccc12 (stereo not drawn) [Compound 18] | –
4.31 | Cc1cccc(C)c1NC(=O)C(OC(=O)c1ccccc1)c1ccnc2ccccc12 (stereo not drawn) [Compound 19] | –
4.18 | Cc1cccc(C)c1NC(=O)C(OC(=O)c1ccc(Cl)cc1)c1ccnc2ccccc12 (stereo not drawn) [Compound 21] | –

Second part, the compound before the results:

SMILES | IC50 [1, 4] [µM] | also measured
CCN(CC)CCCC(C)Nc1ccnc2cc(Cl)ccc12 (stereo not drawn) [CQ, Chloroquine, reference compound] | – | IC50 ([1]; Plasmodium falciparum, 3D7, 24 h): 0.7 µM
O=C(OC(C(=O)NC1CCCCC1)c1ccnc2ccccc12)c1ccccc1 (stereo not drawn) [Compound 1] | – | IC50 ([2]; Homo sapiens): 230 µM; IC50 [1, 3]: 1.51 µM
CC(C)(C)c1ccc(C(=O)OC(C(=O)NC2CCCCC2)c2ccnc3ccccc23)cc1 (stereo not drawn) [Compound 2] | 2.64 | IC50 [2]: 191 µM
O=C(OC(C(=O)NC1CCCCC1)c1ccnc2ccccc12)c1ccc(Cl)cc1 (stereo not drawn) [Compound 4] | 5.02 | –
O=C(OC(C(=O)NC1CCCCC1)c1ccnc2ccccc12)c1ccc(I)cc1 (stereo not drawn) [Compound 8] | 3.5 | –
CC(C)(C)NC(=O)C(OC(=O)c1ccccc1)c1ccnc2ccccc12 (stereo not drawn) [Compound 11] | 4.35 | –
Cc1cccc(C)c1NC(=O)C(OC(=O)c1ccc(C(C)(C)C)cc1)c1ccnc2ccccc12 (stereo not drawn) [Compound 20] | – | IC50 ([2]; Homo sapiens): 199 µM; IC50 [1, 3]: 1.37 µM
Cc1cccc(C)c1NC(=O)C(OC(=O)c1cccc2ccccc12)c1ccnc2ccccc12 (stereo not drawn) [Compound 22] | – | IC50 ([2]; Homo sapiens): 254 µM; IC50 [1, 3]: 1.32 µM
